The values that follow are results of earlier work, collected in US10543230B2, “Redox signaling gel formulation” (RDG Holdings, Inc., priority 2013, dated 2020).

The conditions of this data set: pH around 7.0, room temperature.

Take `[O]O` [superoxide free radicals (O2*-), superoxide]: the half-life was 10's of milliseconds.
With `O=[O+][O-]` [dissolved ozone (O3), ozone], the half-life entry is “about 20 min”.
